In a melting point compilation (Tetko et al.; mined from patent text by program, amines drawn as free bases though some values may be those of a salt):

Row | SMILES | melting point [°C]
1 | Cc1cccc(NC(=O)NC2N=C(c3ccccc3)c3ccccc3N(Cc3nccc4ccccc34)C2=O)c1 (racemic) | 218 to 221
2 | CCOC(=O)[C@H](Cc1cccc(Oc2ccc3ccccc3c2)c1)NC(=O)C(F)(F)F | 78 to 80
3 | CC(=O)N1CCc2c(sc3nc4ccccc4n23)C1 | 181 to 186
4 | CC(=O)Nc1cc(C(F)(F)F)no1 | 108 to 110
5 | c1ccc(OCCSCc2nnc(-c3ccc(OCCCN4CCOCC4)cc3)o2)cc1 | 65
6 | CSC[C@H](C)NC(=O)c1c(I)cccc1C(=O)Nc1ccc(Cc2cc(C(F)(F)F)cc(C(F)(F)F)c2)cc1C | 85 to 94
7 | CCN1NN(N)N=C1C | 45 to 50
8 | CC1(C)SC(c2ccccc2O)NC1C(=O)O (stereo not given) | 179 to 181
9 | CC(Cc1c[nH]c2ccccc12)(NC(=O)OC1C2CC3CC(C2)CC1C3)C(=O)NC(CC(=O)O)Cc1ccc(N)cc1 (stereo not given) | 115 to 120
10 | CC(C)N(Cc1ccc2cc(NC(=O)N3CCC(c4ccc(Cl)cc4)CC3)ccc2n1)C(C)C | 201 to 203
11 | COc1cc(Nc2c(C#N)cnc3cc(-c4cnc(CN5CCN(C)CC5)n4C)sc23)c(Cl)cc1Cl | 234 to 235
12 | O=c1ccc2ccc(CC3CO3)cc2o1 (stereo not given) | 110 to 112
13 | O=C1c2cccc(O)c2C(=O)c2c(NCCCCO)ccc(O)c21 | 168
14 | NNc1nnc(Cl)cc1C(=O)O | 198 to 201
15 | CC12CCC(=O)NC1=CCc1cc(F)ccc12 (stereo not given) | 202
16 | CC(=O)OC1CSC(Oc2cccc(-c3ccnc(F)c3)c2)C(OC(C)=O)C1OC(C)=O (stereo not given) | 117
17 | Cc1cc(C(O)(CNC(=O)c2ccc(Cl)cc2)C(F)(F)F)ccc1NC(=O)OC(C)(C)C (stereo not given) | 160 to 162
18 | CC(C)(C)OC(=O)N1CCN(c2cccc([N+](=O)[O-])c2)CC1 | 82 to 92

Row | SMILES | melting point [°C]
19 | O=C1CC(NC(=O)c2cccnc2)CCCN1 (stereo not given) | 220 to 221
20 | N#CCCc1cccc([N+](=O)[O-])c1 | 86 to 88
21 | CCOC(=O)c1cc(F)c(N2CCC(NC(=O)OC(C)(C)C)C2)cc1F (stereo not given) | 98 to 100
22 | CCOC(=O)C#CC(C)(C)OC(N)=O | 111 to 114
23 | CCOC(=O)C1=C(C)NC(N)(c2nc(-c3cccc(C(F)(F)F)c3)cs2)N=C1 (stereo not given) | 227 to 229
24 | O=C(O)CNC(=O)CCCCc1ccccc1 | 93 to 96
25 | O=C(CBr)CCc1ccc(Br)cc1 | 63 to 64
26 | CCC[C@H]1CC[C@H](c2ccc(CCC(F)F)cc2)CC1 | 12
27 | C[C@@H]1c2cccn2-c2ccc(F)cc2N1C(=O)c1ccc(O)cc1 | 125 to 129
28 | O=[N+]([O-])c1cnn(-c2c(Cl)cc(C(F)(F)F)cc2Cl)c1 | 91 to 97
29 | CCCCOCCOc1ccc(-c2ccc3c(c2)C=C(C(=O)Nc2ccc(C(O)c4cc(C)ccn4)cc2)CCN3C(=O)C(F)(F)F)cc1 (stereo not given) | 101 to 105
30 | Cc1cc(C(=O)NCOC(=O)CO)ncc1C(c1cc(F)ccc1F)S(=O)(=O)c1ccc(F)cc1 (stereo not given) | 84
31 | COC(=O)c1ccc(-c2ccc3cc(OCc4ccc(F)cc4)c(C45CC6CC(CC(C6)C4)C5)cc3c2)cc1O | 189 to 191
32 | CC(C)(C)OC(=O)N1CC(O)CN1C(=O)OC(C)(C)C | 100 to 102
33 | CCCCn1c(=O)c2cc(C(=O)O)cn2c2cc(Cl)ccc21 | 275 to 276
34 | CSc1nn(-c2c(Cl)cc(Cl)cc2Cl)c(N)c1C(N)=O | 198 to 199
35 | COc1cc(C=O)cc2c1OC(C)(C)C2 | 58 to 59

The next lines start with the values.

Row | melting point [°C] | SMILES
36 | 99 to 100 | Cc1oc(-c2ccccc2)nc1CCOc1ccc(C=O)cn1
37 | 273 to 274 | CC1Cc2c(c3cccnc3n(-c3ccc(Cl)c(Cl)c3)c2=O)O1 (stereo not given)
38 | 244 to 247 | CC(c1oc2ccccc2c(=O)c1-c1cccc(F)c1)n1nc(-c2ccc(O)cc2)c2c(N)ncnc21 (stereo not given)
39 | 133 to 135 | Cc1c(CCl)ncn1C(c1ccccc1)(c1ccccc1)c1ccccc1
40 | 122 | Cc1nccn1-c1cccc(C2=CC(=O)OC(C)(C)O2)c1
41 | 72 | O=[N+]([O-])c1cccnc1Cc1ccccc1
42 | 136 to 137 | COc1cc2oc(=O)c(CCN3CCN(c4ccccc4)CC3)c(C)c2c(OC)c1OC
43 | 157 | Fc1cccc2c(NCCc3ccc(Oc4cccc(C(F)(F)F)n4)cc3)ccnc12
44 | 152 to 154 | Cn1cc(-c2cccc(C(F)(F)F)c2)c(=O)c(-c2ccccc2F)c1
45 | 142 to 144 | c1ccc(N2CCN3C(NN4CCOCC4)=Nc4ccccc4N3CC2)cc1
46 | 164 to 167 | Cn1c(CBr)c(C(=O)c2ccccc2)c(=O)n(C)c1=O
47 | 91 to 94 | COC(=O)NCc1cccc(-c2ccccc2)c1C
48 | 115 | O=S(c1ccccc1)c1ncc(Cl)cn1 (stereo not given)
49 | 193 to 194 | O=C1c2cccc(Oc3ccc(Cl)cc3)c2C(=O)N1Cc1cccnc1
50 | 167 to 170 | CN1CC(CCCl)Oc2c(ccc3ccccc23)C1=S (stereo not given)
51 | 217 to 220 | CC(C)Cc1n[nH]c2c1c(=O)n(-c1ccccc1)c1ncccc21
52 | 209 to 211 | O=C(O)c1cc(-n2c(-c3ccccc3)cc3c2CCCC3)ccc1O
53 | 213 to 215 | Cc1c(N)ccn2nc(-c3ccccc3)nc12

Row | melting point [°C] | SMILES
54 | 123 to 124 | C=CCNC(=O)C1CCc2cc(-c3ccccc3)ccc2O1 (stereo not given)
55 | 84 to 86 | O=C(c1cccnc1)N1CCCC(c2ccccc2)=N1
56 | 132 to 134 | COc1ccc(-c2ccccc2C(SCC(=O)c2ccccc2)C(O)C(N)=O)cc1 (stereo not given)
57 | 108 to 110 | CC(C)n1nc(-c2sc(NC(=O)c3ccc(CNCCCN(C)C)cc3)nc2-c2ccccc2)ccc1=O
58 | 221 to 225 | Cc1cccc2c(=O)n(S(=O)(=O)c3ccc(Cl)cc3)c(=O)[nH]c12
59 | 125 to 127 | CN1c2cscc2CNc2ccccc21
60 | 201 to 203 | NNc1cc(-c2ccnc(Nc3cccc(Cl)c3)n2)ccn1
61 | 75 to 77 | CC(C)(C)C(=O)OCOC(=O)C1CCc2c(c3ccccc3n2C(=O)c2ccccc2)C1 (stereo not given)
62 | 255 to 259 | Cc1ccc(-c2nc3sc4ccccc4n3c2CC(=O)O)s1
63 | 124 to 132 | COCCOc1cc2ncnc(NC3=CC(=O)C(Oc4ccc(-n5ccnc5)cc4)=CC3=O)c2cc1OC
64 | 83 to 98 | CCC1(Cc2ncn(C(c3ccccc3)(c3ccccc3)c3ccccc3)c2C)CCc2c(C)c3ccccc3n2C1=O (stereo not given)
65 | 264 to 266 | CC(C)(C)C(=O)c1c[nH]c2ncc(-c3cccc(NS(=O)(=O)c4ccc(N)cc4)c3)nc12
66 | 216 to 218 | CCCOc1cc(C(=O)O)ccc1-c1ccc(-c2ccccc2)c(-c2ccc3c(c2)C(C)(C)CCC3(C)C)c1
67 | 129 to 131 | CC(C)=CCN1CC(NC(=O)Nc2cccc(C(=O)O)c2)C(=O)N(CC(=O)c2ccccc2C)c2cc(C)ccc21 (stereo not given)
68 | 166 to 168 | Cc1[nH]cnc1/C=C/C(=O)c1c(C)oc2ccccc12
69 | 186 to 188 | Cc1cccc2c1nc(-c1cccnc1)n2Cc1c(F)cccc1F
70 | 105 to 106 | Cc1ccc(Sc2ccccc2C(=O)N(C)C)c([N+](=O)[O-])c1
